Here are results for 18 compounds from US20240059710A1, “KRAS G12D Inhibitors” (Jacobio Pharmaceuticals Co., Ltd., priority 2020, published 2024).

Test [1] relates to AGS. Briefly: Cell growth inhibition assay (AGS). The class given is cell-based. As to conditions: 6 days incubation, CellTiter-Glo. The procedure: (§1) 4. Cell Growth Inhibition Assay
AGS cultured in F12K medium (Gibco) containing 10% fetal bovine serum (Gibco). Cells in culture medium were plated in 96-well plates at a concentration of 500 cells/well ([…]) and allowed to attach overnight.
(§2) The next day, compounds were diluted in culture medium and added to the plates. After 6 days incubation in a 37° C./5% CO2 cell incubator, the cell viability was detected by CellTiter-Glo® Luminescent Cell Viability Assay kit (Promega). Luminescent signals were read on Tecan Spark multimode microplate reader and analyzed using a 4-parameter logistic model to calculate IC50 values.

For test [2], the system named is AsPC-1. Briefly: Cell growth inhibition assay (AsPC-1). The format is cell-based. As to conditions: AsPC-1, 6 days incubation, CellTiter-Glo. The procedure:
as §1
AsPC-1 cultured in RPMI-1640 medium (Gibco) containing 10% fetal bovine serum (Gibco). Cells in culture medium were plated in 96-well plates at a concentration of 1000 cells/well ([…]) and allowed to attach overnight.
as §2

Test [3] has as its target T1, GDP-loaded HIS-KRAS (G12D, aa 1-169) (Homo sapiens, UniProt P01116, G12D).
T1 construct: GDP-loaded HIS-KRAS (G12D, aa 1-169)
The experiment in a line: SOS1 catalyzed nucleotide exchange assay. The settings on record: SOS1 ExD, TR-FRET, 4 hours at 25° C. The format is biochemical. As for the experimental part:
1. SOS1 Catalyzed Nucleotide Exchange Assay
GDP-loaded HIS-KRAS (G12D, aa 1-169) was pre-incubated with a compound in the presence of 10 nM GDP in a 384-well plate (Greiner) for 15 min, then purified SOS1 ExD (Flag tag, aa 564-1049), BODIPY™ FL GTP (Invitrogen) and MAb (monoclonal antibody) Anti 6HIS-Tb cryptate Gold (Cisbio) were added to the assay wells (Final concentration: 1.5 nM GDP-loaded HIS-KRAS (G12D), 5 nM GDP, 0.5 μM SOS1 ExD, 80 nM BODIPY™ FL GTP, 52.5 ng/mL MAb Anti 6HIS-Tb cryptate Gold) and incubated for 4 hours at 25° C. Wells containing same percent of DMSO served as vehicle control, and wells without KRAS served as low control. TR-FRET signals were read on Tecan Spark multimode microplate reader. The parameters were F486: Excitation 340 nm, Emission 486 nm, Lag time 100 μs, Integration time 200 μs; F515: Excitation 340 nm, Emission 515 nm, Lag time 100 μs, Integration time 200 μs. TR-FRET ratios for each individual wells were calculated by equation: TR-FRET ratio=(Signal F515/Signal F486)*10000. The percent of activation of compounds treated wells were normalized between vehicle control and low control (% Activation=(TR-FRET ratioCompound treated−TR-FRET ratioLow control)/(TR-FRET ratioVehicle control−TR-FRET ratioLow control)*100%). Then the data were analyzed either by fitting a 4-parameter logistic model or by Excel to calculate IC50 values.

The target of test [4] is T2, GppNp-loaded HIS-KRAS (G12D, aa 1-169) / cRAF RBD (Homo sapiens, UniProt P01116, G12D).
T2 construct: GppNp-loaded HIS-KRAS (G12D, aa 1-169)
T2 sequence (P01116 1-169 isoform P01116-2 G12D): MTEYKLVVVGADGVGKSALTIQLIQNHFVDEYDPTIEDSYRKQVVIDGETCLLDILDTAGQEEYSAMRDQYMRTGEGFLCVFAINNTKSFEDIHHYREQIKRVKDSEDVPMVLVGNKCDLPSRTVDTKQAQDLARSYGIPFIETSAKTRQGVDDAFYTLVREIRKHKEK
Briefly: GTP-KRAS and cRAF interaction assay. The class given is binding. As to conditions: HTRF, 2 hours at 25° C. The procedure:
2. GTP-KRAS and cRAF Interaction Assay
GppNp-loaded HIS-KRAS (G12D, aa 1-169) was pre-incubated with a compound in the presence of 200 µM GTP in a 384-well plate (Greiner) for 15 min, then cRAF RBD (GST tag, aa 50-132, CreativeBioMart), MAb Anti GST-d2 (Cisbio) and MAb Anti 6HIS-Tb cryptate Gold (Cisbio) were added to the assay wells (Final concentration: 2.0 nM GppNp-loaded HIS-KRAS (G12D), 100 μM GTP, 35 nM cRAF RBD, 1 μg/mL MAb Anti GST-d2, 52.5 ng/mL MAb Anti 6HIS-Tb cryptate Gold) and incubated for 2 hours at 25° C. Wells containing same percent of DMSO served as vehicle control, and wells without KRAS served as low control. HTRF signals were read on Tecan Spark multimode microplate reader and HTRF ratios were calculated under manufacturer's instructions. The percent of activation of compounds treated wells were normalized between vehicle control and low control (% Activation=(HTRF ratioCompound treated−HTRF ratioLow control)/(HTRF ratioVehicle control−HTRF ratioLow control)*100). Then the data were analyzed either by fitting a 4-parameter logistic model or by Excel to calculate IC50 values.

In test [5] the test system is AGS cells expressing KRAS G12D. The experiment in a line: Phospho-ERK1/2(THR202/TYR204) HTRF assay. The class given is cell-based. The settings on record: 2 hours incubation, read-out: AGS p-ERK IC50. As for the experimental part: AGS cells expressing KRAS G12D were cultured in F12K medium (Gibco) containing 10% fetal bovine serum (Gibco). The AGS cells in culture medium were seeded in 96-well plates at a concentration of 40,000 cells/well and then put in a 37° C./5% CO2 cell incubator to incubate overnight. The next day, culture medium was removed and the compound diluted in assay medium (F12K, 0.1% FBS) was added in each well. After 2 hours incubation in a 37° C./5% CO2 cell incubator, the assay medium in 96-well plates was removed, then 50 μL of 1× blocking reagent-supplemented lysis buffer (Cisbio) was added and the plates were incubated at 25° C. for 45 min with shaking. 10 μL of cell lysates from the 96-well plates were transferred to a 384-well plate (Greiner) containing 2.5 μL/well HTRF® pre-mixed antibodies (Cisbio 64AERPEH). Incubate 4 hours at 25° C. and then read HTRF signals on Tecan Spark multimode microplate reader. The data were analyzed using a 4-parameter logistic model to calculate IC50 values.

Like-named read-outs stand apart in the source and are kept apart here.

T1 sequence (P01116 1-169 isoform P01116-2 G12D): as above

Turning to `C#Cc1c(F)ccc2cc(O)cc(-c3c(C(C)C)cc4c(N5CC6CCC(C5)N6)nc(OCC5(CN6CCOCC6)CC5)nc4c3F)c12` [Compound 106], the IC50 amounted to 1.8 nM in test [1] (Homo sapiens, 144 h); 12.8 nM in test [2] (Homo sapiens, ASPC1, 144 h); 0.332 nM in test [3]; 1.3 nM in test [4]; 8.6 nM in test [5] (Homo sapiens).

As for `C#Cc1cccc2cc(O)cc(-c3ccc4c(N5CC6CCC(C5)N6)nc(OC[C@@]56CCCN5C[C@H](F)C6)nc4c3F)c12` [Compound 73], the IC50 in test [1] (Homo sapiens, 144 h) worked out at 7 nM; in test [2] (Homo sapiens, ASPC1, 144 h), 42 nM; in test [3], 3.02 nM; in test [4] it was 37 nM; in test [5] (Homo sapiens), 0.757 nM.

Consider `C#Cc1cccc2cc(O)cc(-c3ccc4c(N5CC6CCC(C5)N6)nc(OCC5(CN6CC[C@@H](F)C6)CC5)nc4c3F)c12` [Compound 114], for which the IC50 is 4.47 nM in test [1] (Homo sapiens, 144 h); 18.7 nM in test [2] (Homo sapiens, ASPC1, 144 h); 12.3 nM in test [3]; 120 nM in test [4]; 9.02 nM in test [5] (Homo sapiens).

As for `C#Cc1cccc2cc(O)cc(-c3cc4nc(OCC5(CN6CCOCC6)CC5)nc(N5CC6CCC(C5)N6)c4cc3C)c12` [Compound 118], the IC50 came to 31.1 nM in test [1] (Homo sapiens, 144 h); 145 nM in test [2] (Homo sapiens, ASPC1, 144 h); 19.2 nM in test [3]; 165 nM in test [4]; 64 nM in test [5] (Homo sapiens).

Take `C#Cc1cccc2cc(O)cc(-c3c(C4CC4)cc4c(N5CC6CCC(C5)N6)nc(OCC5(CN6CCOCC6)CC5)nc4c3F)c12` (single isomer, unassigned) [Compound 38B]: the IC50 in test [1] worked out at 10.5 nM; in test [2], 158 nM; in test [3], 0.727 nM; in test [4], 13.2 nM; in test [5], 12.4 nM.

On to `C#Cc1cccc2cc(O)cc(-c3c(CO)cc4c(N5CC6CCC(C5)N6)nc(OCC5(CN6CCOCC6)CC5)nc4c3F)c12` [Compound 102], for which the IC50 in test [1] (Homo sapiens, 144 h) turned out to be 82.5 nM; in test [2] (Homo sapiens, ASPC1, 144 h), 1940 nM; in test [3], 6.42 nM; in test [4], 74.2 nM; in test [5] (Homo sapiens), 40.4 nM.

Take `C#Cc1cccc2cc(O)cc(-c3c(F)cc4c(N5CC6CCC(C5)N6)nc(OCC5(CN6CCS(=O)(=O)CC6)CC5)nc4c3F)c12` [Compound 83]: the IC50 is 273 nM in test [1] (Homo sapiens, 144 h); 5090 nM in test [2] (Homo sapiens, ASPC1, 144 h); 18 nM in test [3]; 3150 nM in test [4]; 131 nM in test [5] (Homo sapiens).

`C#Cc1cccc2cc(O)cc(-c3c(C4CC4)cc4c(N5CC6CCC(C5)N6)nc(OCC5(CN6CCOCC6)CC5)nc4c3F)c12` [Compound 38]: the half-maximal inhibitory concentration (IC50) in test [1] (Homo sapiens, 144 h) is 51 nM; in test [2] (Homo sapiens, ASPC1, 144 h), 141 nM; in test [3] it was 13.8 nM; in test [4], 126 nM; in test [5] (Homo sapiens) it was 19.8 nM.

For `C#Cc1cccc2cc(O)cc(-c3c(C(F)(F)F)cc4c(N5CC6CCC(C5)N6)nc(OCC5(CN6CCOCC6)CC5)nc4c3F)c12` (single isomer, unassigned) [Compound 98A], the IC50 in test [1] turned out to be 319 nM; in test [2] it was 1440 nM; in test [3], 219 nM; in test [4] it was 4260 nM; in test [5], 1830 nM.

For the compound `C#Cc1cccc2cc(O)cc(-c3ccc4c(N5CC6CCC(C5)N6)nc(OCC5(CN6CCOCC6)CC5)nc4c3Cl)c12` [Compound 121], the IC50 in test [1] (Homo sapiens, 144 h) was found to be 11.2 nM; in test [2] (Homo sapiens, ASPC1, 144 h), 67 nM; in test [3], 28.8 nM; in test [4], 318 nM; in test [5] (Homo sapiens) it was 19.7 nM.

Turning to `C#Cc1cccc2cc(O)cc(-c3c(SC(F)(F)F)cc4c(N5CC6CCC(C5)N6)nc(OCC5(CN6CCOCC6)CC5)nc4c3F)c12` (single isomer, unassigned) [Compound 59B], the IC50 in test [1] was found to be 6 nM; in test [2], 5.54 nM; in test [3], 1.65 nM; in test [4] it was 6.28 nM; in test [5], 10.8 nM.

In the case of `N#Cc1c(N)sc2c(F)ccc(-c3ccc4c(N5CC6CCC(C5)N6)nc(OCC5(CN6CCOCC6)CC5)nc4c3F)c12` [Compound 95], the IC50 in test [1] (Homo sapiens, 144 h) is 52.7 nM; in test [2] (Homo sapiens, ASPC1, 144 h), 572 nM; in test [3] it was 3.28 nM; in test [4] it was 388 nM; in test [5] (Homo sapiens), greater than 200 nM.

Regarding `C#Cc1cccc2cc(O)cc(-c3cc4nc(OCC5(CN6CCOCC6)CC5)nc(N5CC6CCC(C5)N6)c4cc3F)c12` [Compound 108], the IC50 in test [1] (Homo sapiens, 144 h) amounted to 21.9 nM; in test [2] (Homo sapiens, ASPC1, 144 h) it was 63.6 nM; in test [3] it was 28.1 nM; in test [4], 298 nM; in test [5] (Homo sapiens), 19 nM.

In the case of `C#Cc1cccc2cc(O)cc(-c3c(C)cc4c(N5CC6CCC(C5)N6)nc(OCC5(CN6CCOCC6)CC5)nc4c3F)c12` (single isomer, unassigned) [Compound 40B], the IC50 in test [1] stood at 4.92 nM; in test [2], 45.8 nM; in test [3], 0.824 nM; in test [4] it was 22.4 nM; in test [5] it was 1.97 nM.

In the case of `C#Cc1cccc2cc(O)cc(-c3ccc4c(N5CC6CCC(C5)N6)nc(OCC5(CN6CCO[C@@H](C)C6)CC5)nc4c3F)c12` [Compound 80], the IC50 in test [1] (Homo sapiens, 144 h) came out at 5.26 nM; in test [2] (Homo sapiens, ASPC1, 144 h), 24.1 nM; in test [3] it was 3.76 nM; in test [4], 69.4 nM; in test [5] (Homo sapiens), 3.63 nM.

For the compound `Oc1cc(-c2c(Cl)cc3c(N4CC5CCC(C4)N5)nc(OCC45CCCN4C[C@H](F)C5)nc3c2F)c2c(Cl)cccc2c1` (stereo partly drawn) [Compound 90], the IC50 in test [1] (Homo sapiens, 144 h) is 14.6 nM; in test [2] (Homo sapiens, ASPC1, 144 h) it was 100 nM; in test [3], 5.35 nM; in test [4], 84.8 nM; in test [5] (Homo sapiens), 12.4 nM.

Regarding `C#Cc1cccc2cc(O)cc(-c3c(C(=C)C)cc4c(N5CC6CCC(C5)N6)nc(OCC5(CN6CCOCC6)CC5)nc4c3F)c12` [Compound 105], the IC50 came to 18.4 nM in test [1] (Homo sapiens, 144 h); 63.3 nM in test [2] (Homo sapiens, ASPC1, 144 h); 1.57 nM in test [3]; 15.6 nM in test [4]; 13 nM in test [5] (Homo sapiens).

With `C#Cc1cccc2cc(O)cc(-c3ccc4c(N5CC6CCC(C5)N6)nc(OCC5(CN6CCOC[C@H]6C)CC5)nc4c3F)c12` [Compound 115], the IC50 came to 4.23 nM in test [1] (Homo sapiens, 144 h); 7.52 nM in test [2] (Homo sapiens, ASPC1, 144 h); 28.2 nM in test [3]; 121 nM in test [4]; 4.23 nM in test [5] (Homo sapiens).
